Measurements reported in ChEMBL document CHEMBL6120974, “Hydrazide-Based Class I Selective HDAC Inhibitors Completely Reverse Chemoresistance Synergistically in Platinum-Resistant Solid Cancer Cells” (J Med Chem, 2024).
Activity calls are given as the source filed them. No cut-off for these calls is given here.

Columns and labels:
A2780cisR [1] = assay: Induction of apoptosis in cisplatin resistant human A2780 cisR cells assessed as increase in Bcl-2 protein level at 2 uM in presence of cisplatin at 16 uM preincubated with compound for 48 hrs prior to addition of cisplatin and measured after 24 hrs by Immunoblotting analysis; assay type: functional, cell-based; details: time 72.0 hrs
A2780 [2] = assay: Induction of DNA damage in human A2780 cells assessed as increase in gammaH2AX formation at 0.75 uM in presence of cisplatin at 3.5 uM pretreated with compound for 48 hrs prior to addition of cisplatin and measured after 24 hrs by Hoechst 33342 staining based Immunofluorescence analysis; assay type: functional, cell-based; details: time 72.0 hrs
A2780cisR [3] = assay: cells; details: Homo sapiens, 72 h
Cal27CisR [4] = assay: Induction of apoptosis in cisplatin resistant human Cal27CisR cells assessed as increase in Bcl-2 protein level at 0.316 uM in presence of cisplatin at 16.5 uM preincubated with compound for 48 hrs prior to addition of cisplatin and measured after 24 hrs by Immunoblotting analysis; assay type: functional, cell-based; details: time 72.0 hrs
A2780 [5] = assay: Downregulation of survivin expression in human A2780 cells at 0.75 uM incubated for 48 hrs by Immunoblotting analysis; assay type: functional, cell-based
CAL-27 [6] = assay: Induction of cell cycle arrest in human CAL-27 cells assessed as increase in p21 expression at 0.316 uM incubated for 48 hrs by Western blotting analysis; assay type: functional, cell-based
CAL-27 [7] = assay: cells; details: Homo sapiens, CAL-27, 72 h
Description: Cytotoxicity against human CAL-27 cells assessed as reduction in cell viability incubated for 72 hrs by MTT assay

cells [8] = details: Homo sapiens, A2780cisR
Description: Inhibition of class I/6 HDAC (unknown origin) in cisplatin resistant human A2780 cisR cells using Boc-Lys(epsilon-Ac)-AMC as substrate preincubated with compound for 18 hrs followed by substrate addition and measured after 3 hrs by NOVOstar microplate reader analysis

A2780cisR [9] = assay: Downregulation of survivin expression in cisplatin resistant human A2780 cisR cells at 2 uM incubated for 48 hrs by Immunoblotting analysis; assay type: functional, cell-based
A2780cisR [10] = assay: Induction of apoptosis in cisplatin resistant human A2780 cisR cells assessed as increase in BIM expression at 2 uM incubated for 48 hrs by Immunoblotting analysis; assay type: functional, cell-based
CAL-27 [11] = assay: Induction of apoptosis in human CAL-27 cells assessed as caspase-3/7 activation at 0.316 uM incubated for 48 hrs by capase3/7 green dye based analysis; assay type: functional, cell-based
A2780 [12] = assay: Induction of apoptosis in human A2780 cells assessed as increase in apoptotic nuclei at sub-G1 phase at 2 uM in presence of cisplatin at 16 uM preincubated with compound for 48 hrs prior to addition of cisplatin and measured after 24 hrs by flow cytometric analysis; assay type: functional, cell-based; details: time 72.0 hrs
A2780 [13] = assay: cells; details: Homo sapiens, A2780, 72 h
Description: Cytotoxicity against human A2780 cells assessed as reduction in cell viability incubated for 72 hrs by MTT assay

A2780cisR [14] = assay: Induction of apoptosis in cisplatin resistant human A2780 cisR cells assessed as increase in caspase 3/7 activation at 2 uM in presence of cisplatin preincubated with compound for 48 hrs co-treated with cisplatin and measured after 24 hrs by capase3/7 green dye based analysis; assay type: functional, cell-based; details: time 72.0 hrs
cells [15] = details: Homo sapiens, A2780
Description: Inhibition of class I/6 HDAC (unknown origin) in human A2780 cells using Boc-Lys(epsilon-Ac)-AMC as substrate preincubated with compound for 18 hrs followed by substrate addition and measured after 3 hrs by NOVOstar microplate reader analysis

A2780cisR [16] = assay: Induction of apoptosis in cisplatin resistant human A2780 cisR cells assessed as decrease in Bcl-2 protein level at 2 uM incubated for 48 hrs by Immunoblotting analysis; assay type: functional, cell-based
A2780 [17] = assay: Downregulation of BAX expression in human A2780 cells at 0.75 uM incubated for 48 hrs by Immunoblotting analysis; assay type: functional, cell-based
Cal27CisR [18] = assay: Downregulation of BAX expression in cisplatin resistant human Cal27CisR cells at 0.316 uM incubated for 48 hrs by Immunoblotting analysis; assay type: functional, cell-based
Cal27CisR [19] = assay: Induction of apoptosis in cisplatin resistant human Cal27CisR cells assessed as increase in Bcl-2 protein level at 0.316 uM incubated for 48 hrs by Immunoblotting analysis; assay type: functional, cell-based
A2780 [20] = assay: Induction of apoptosis in human A2780 cells assessed as increase in apoptotic nuclei at sub-G1 phase at 2 uM incubated for 48 hrs by flow cytometric analysis; assay type: functional, cell-based
CAL-27 [21] = assay: Induction of apoptosis in human CAL-27 cells assessed as increase in apoptotic nuclei at sub-G1 phase at 0.316 uM in presence of cisplatin at 3 uM preincubated with compound for 48 hrs prior to addition of cisplatin and measured after 24 hrs by flow cytometric analysis; assay type: functional, cell-based; details: time 72.0 hrs
Cal27CisR [22] = assay: Induction of apoptosis in cisplatin resistant human Cal27CisR cells assessed as caspase-3/7 activation at 0.316 uM incubated for 48 hrs by capase3/7 green dye based analysis; assay type: functional, cell-based
cells [23] = details: Homo sapiens, Cal27CisR
Description: Inhibition of class I/6 HDAC (unknown origin) in cisplatin resistant human Cal27CisR cells using Boc-Lys(epsilon-Ac)-AMC as substrate preincubated with compound for 18 hrs followed by substrate addition and measured after 3 hrs by NOVOstar microplate reader analysis

A2780cisR [24] = assay: Downregulation of BAX expression in cisplatin resistant human A2780 cisR cells at 2 uM incubated for 48 hrs by Immunoblotting analysis; assay type: functional, cell-based
Cal27CisR [25] = assay: Downregulation of survivin expression in cisplatin resistant human Cal27CisR cells at 0.316 uM incubated for 48 hrs by Immunoblotting analysis; assay type: functional, cell-based
Cal27CisR [26] = assay: Induction of apoptosis in cisplatin resistant human Cal27CisR cells assessed as increase in apoptotic nuclei at sub-G1 phase at 0.316 uM in presence of cisplatin at 3 uM preincubated with compound for 48 hrs prior to addition of cisplatin and measured after 24 hrs by flow cytometric analysis; assay type: functional, cell-based; details: time 72.0 hrs
Cal27CisR [27] = assay: Induction of apoptosis in cisplatin resistant human Cal27CisR cells assessed as increase in BIM expression at 0.316 uM in presence of cisplatin at 16.5 uM preincubated with compound for 48 hrs prior to addition of cisplatin and measured after 24 hrs by Immunoblotting analysis; assay type: functional, cell-based; details: time 72.0 hrs
A2780cisR [28] = assay: Induction of cell cycle arrest in cisplatin resistant human A2780 cells assessed as increase in p21 expression at 2 uM incubated for 48 hrs by Western blotting analysis; assay type: functional, cell-based
CAL-27 [29] = assay: Downregulation of BAX expression in human CAL-27 cells at 0.316 uM incubated for 48 hrs by Immunoblotting analysis; assay type: functional, cell-based
CAL-27 [30] = assay: Induction of apoptosis in human CAL-27 cells assessed as increase in BIM expression at 0.316 uM incubated for 48 hrs by Immunoblotting analysis; assay type: functional, cell-based
Cal27CisR [31] = assay: Induction of apoptosis in cisplatin resistant human Cal27CisR cells assessed as increase in caspase 3/7 activation at 0.316 uM in presence of cisplatin preincubated with compound for 48 hrs co-treated with cisplatin and measured after 24 hrs by capase3/7 green dye based analysis; assay type: functional, cell-based; details: time 72.0 hrs
A2780cisR [32] = assay: Induction of apoptosis in cisplatin resistant human A2780 cisR cells assessed as increase in apoptotic nuclei at sub-G1 phase at 2 uM incubated for 48 hrs by flow cytometric analysis; assay type: functional, cell-based
cells [33] = details: Homo sapiens, CAL-27
Description: Inhibition of class I/6 HDAC (unknown origin) in human CAL-27 cells using Boc-Lys(epsilon-Ac)-AMC as substrate preincubated with compound for 18 hrs followed by substrate addition and measured after 3 hrs by NOVOstar microplate reader analysis

A2780 [34] = assay: Induction of apoptosis in human A2780 cells assessed as increase in caspase 3/7 activation at 0.75 uM in presence of cisplatin preincubated with compound for 48 hrs co-treated with cisplatin and measured after 24 hrs by capase3/7 green dye based analysis; assay type: functional, cell-based; details: time 72.0 hrs
A2780cisR [35] = assay: Induction of apoptosis in cisplatin resistant human A2780 cisR cells assessed as caspase-3/7 activation at 2 uM incubated for 48 hrs by capase3/7 green dye based analysis; assay type: functional, cell-based
cells [36] = details: Homo sapiens, A2780; remark: listed apart in the source
Description: Inhibition of class IIa/8 HDAC (unknown origin) in human A2780 cells using Boc-Lys(TFA)-AMC as substrate preincubated with compound for 18 hrs followed by substrate addition and measured after 3 hrs by NOVOstar microplate reader analysis

[37] = Cytotoxicity against human HEK293 cells assessed as reduction in cell viability incubated for 72 hrs by MTT assay; assay type: toxicity, cell-based

CCCNNC(=O)c1ccc(CN(CC(=O)NCc2ccccc2)C(=O)c2ccc(N(C)C)cc2)cc1
Activity (A2780cisR [1]): Active
Activity (A2780 [2]): inactive
IC50 (A2780cisR [3]): 2460 nM
Activity (Cal27CisR [4]): Not active; Slight Increase Observed
Activity (A2780 [5]): Active
Activity (CAL-27 [6]): Active
IC50 (CAL-27 [7]): 660 nM
IC50 (cells [8]): 295 nM
Activity (A2780cisR [9]): Active
Activity (A2780cisR [10]): Active
Activity (CAL-27 [11]): Active; Low Caspase Activation Observed
Activity (A2780 [12]): inactive
IC50 (A2780 [13]): 1130 nM
Activity (A2780cisR [14]): Active
IC50 (cells [15]): 235 nM
Activity (A2780cisR [16]): Active
Activity (A2780 [17]): Active
Activity (Cal27CisR [18]): Active
Activity (Cal27CisR [19]): Not active; Slight Increase Observed
Activity (A2780 [20]): Active
Activity (CAL-27 [21]): Active
Activity (Cal27CisR [22]): Active; Low Activation Observed
IC50 (cells [23]): 155 nM
Activity (A2780cisR [24]): Active
Activity (Cal27CisR [25]): Active
Activity (Cal27CisR [26]): Active
Activity (Cal27CisR [27]): Active
Activity (A2780cisR [28]): Active
Activity (CAL-27 [29]): Active
Activity (CAL-27 [30]): Active
Activity (Cal27CisR [31]): Active
Activity (A2780cisR [32]): Active
IC50 (cells [33]): 151 nM
Activity (A2780 [34]): Active
Activity (A2780cisR [35]): Active; Remarkable Activation Observed
IC50 (cells [36]): 115000 nM
IC50 at 72 h [37]: 1160 nM

CCCCNNC(=O)c1ccc(CN(CC(=O)NCc2ccccc2)C(=O)c2ccc(N(C)C)cc2)cc1
Activity (A2780cisR [1]): Active
Activity (A2780 [2]): inactive
IC50 (A2780cisR [3]): 2690 nM
Activity (Cal27CisR [4]): Not active; Slight Increase Observed
Activity (A2780 [5]): Active
Activity (CAL-27 [6]): Active
IC50 (CAL-27 [7]): 688 nM
IC50 (cells [8]): 268 nM
Activity (A2780cisR [9]): Active
Activity (A2780cisR [10]): Active
Activity (CAL-27 [11]): Active; Low Caspase Activation Observed
Activity (A2780 [12]): inactive
IC50 (A2780 [13]): 894 nM
Activity (A2780cisR [14]): Active
IC50 (cells [15]): 263 nM
Activity (A2780cisR [16]): Active
Activity (A2780 [17]): Active
Activity (Cal27CisR [18]): Active
Activity (Cal27CisR [19]): Not active; Slight Increase Observed
Activity (A2780 [20]): Active
Activity (CAL-27 [21]): Active
Activity (Cal27CisR [22]): Active; Low Activation Observed
IC50 (cells [23]): 156 nM
Activity (A2780cisR [24]): Active
Activity (Cal27CisR [25]): Active
Activity (Cal27CisR [26]): Active
Activity (Cal27CisR [27]): Active
Activity (A2780cisR [28]): Active
Activity (CAL-27 [29]): Active
Activity (CAL-27 [30]): Active
Activity (Cal27CisR [31]): Active
Activity (A2780cisR [32]): Active
IC50 (cells [33]): 166 nM
Activity (A2780 [34]): Active
Activity (A2780cisR [35]): Active; Remarkable Activation Observed
IC50 (cells [36]): 15900 nM
IC50 at 72 h [37]: 1090 nM
